14 compounds from patent US6960597B2, “Aza-bridged-bicyclic amino acid derivatives as α4 integrin antagonists” (Orth-McNeil Pharmaceutical, Inc., priority 2000, dated 2005) can be followed below.

Molecules are shown by their SMILES. Like-named read-outs stand apart in the source and are kept apart here.

In one test the target is T1, α4β1 integrin receptor (Homo sapiens, UniProt P05556+P13612).
T1 construct: Ramos Cell Adhesion Assay (α4β1 Mediated Adhesion/VCAM-1); endogenous in cells; host or cells: Ramos cells
T1 sequence (P05556 21-798, one chain of several): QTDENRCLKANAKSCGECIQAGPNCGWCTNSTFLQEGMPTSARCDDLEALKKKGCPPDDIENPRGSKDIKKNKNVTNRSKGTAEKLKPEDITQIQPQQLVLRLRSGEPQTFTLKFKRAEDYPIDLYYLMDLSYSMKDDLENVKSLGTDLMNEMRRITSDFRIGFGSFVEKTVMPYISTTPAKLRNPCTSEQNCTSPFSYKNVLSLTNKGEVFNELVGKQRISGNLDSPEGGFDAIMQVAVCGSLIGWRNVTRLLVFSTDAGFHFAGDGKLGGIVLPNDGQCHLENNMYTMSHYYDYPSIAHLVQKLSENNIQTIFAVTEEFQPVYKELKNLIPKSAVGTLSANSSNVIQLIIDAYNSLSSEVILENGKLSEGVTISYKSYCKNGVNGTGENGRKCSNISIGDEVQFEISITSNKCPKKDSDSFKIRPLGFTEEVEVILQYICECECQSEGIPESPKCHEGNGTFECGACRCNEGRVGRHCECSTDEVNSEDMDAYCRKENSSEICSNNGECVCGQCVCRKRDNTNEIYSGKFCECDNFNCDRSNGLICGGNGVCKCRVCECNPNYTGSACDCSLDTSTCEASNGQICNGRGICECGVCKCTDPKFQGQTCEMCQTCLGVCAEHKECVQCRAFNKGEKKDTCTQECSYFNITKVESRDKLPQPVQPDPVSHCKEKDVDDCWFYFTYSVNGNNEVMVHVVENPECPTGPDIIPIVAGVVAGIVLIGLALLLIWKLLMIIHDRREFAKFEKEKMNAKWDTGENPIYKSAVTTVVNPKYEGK
The experiment in a line: Ramos Cell Adhesion Assay (α4β1 Mediated Adhesion/VCAM-1). Format: cell-based. How it is done:
Ramos Cell Adhesion Assay (α4β1 Mediated Adhesion/VCAM-1)
(§1) Immulon 96 well plates (Dynex) were coated with 100 μL recombinant hVCAM-1 at 4.0 μg/mL in 0.05 M NaCO3 buffer pH 9.0 overnight at 4° C. (R&D Systems). Plates were washed 3 times in PBS with 1% BSA and blocked for 1 h @ room temperature in this buffer. PBS was removed and compounds to be tested (50 μL) were added at 2× concentration. Ramos cells, (50 μL at 2×10^6/mL) labeled with 5 μM Calcein AM (Molecular Probes) for 1 h at 37° C., were added to each well and allowed to adhere for 1 h at room temperature. Plates were washed 3× in PBS+1% BSA and cells were lysed for 15 minutes in 100 μL of 1 M Tris pH 8.0 with 1% SDS. The plate was read at 485 nm excitation and 530 nm emission.

A further test addresses T2, human α4β7 (Homo sapiens, UniProt P13612+P26010).
T2 construct: expressed in transfected cells
T2 sequence (P13612 34-1032): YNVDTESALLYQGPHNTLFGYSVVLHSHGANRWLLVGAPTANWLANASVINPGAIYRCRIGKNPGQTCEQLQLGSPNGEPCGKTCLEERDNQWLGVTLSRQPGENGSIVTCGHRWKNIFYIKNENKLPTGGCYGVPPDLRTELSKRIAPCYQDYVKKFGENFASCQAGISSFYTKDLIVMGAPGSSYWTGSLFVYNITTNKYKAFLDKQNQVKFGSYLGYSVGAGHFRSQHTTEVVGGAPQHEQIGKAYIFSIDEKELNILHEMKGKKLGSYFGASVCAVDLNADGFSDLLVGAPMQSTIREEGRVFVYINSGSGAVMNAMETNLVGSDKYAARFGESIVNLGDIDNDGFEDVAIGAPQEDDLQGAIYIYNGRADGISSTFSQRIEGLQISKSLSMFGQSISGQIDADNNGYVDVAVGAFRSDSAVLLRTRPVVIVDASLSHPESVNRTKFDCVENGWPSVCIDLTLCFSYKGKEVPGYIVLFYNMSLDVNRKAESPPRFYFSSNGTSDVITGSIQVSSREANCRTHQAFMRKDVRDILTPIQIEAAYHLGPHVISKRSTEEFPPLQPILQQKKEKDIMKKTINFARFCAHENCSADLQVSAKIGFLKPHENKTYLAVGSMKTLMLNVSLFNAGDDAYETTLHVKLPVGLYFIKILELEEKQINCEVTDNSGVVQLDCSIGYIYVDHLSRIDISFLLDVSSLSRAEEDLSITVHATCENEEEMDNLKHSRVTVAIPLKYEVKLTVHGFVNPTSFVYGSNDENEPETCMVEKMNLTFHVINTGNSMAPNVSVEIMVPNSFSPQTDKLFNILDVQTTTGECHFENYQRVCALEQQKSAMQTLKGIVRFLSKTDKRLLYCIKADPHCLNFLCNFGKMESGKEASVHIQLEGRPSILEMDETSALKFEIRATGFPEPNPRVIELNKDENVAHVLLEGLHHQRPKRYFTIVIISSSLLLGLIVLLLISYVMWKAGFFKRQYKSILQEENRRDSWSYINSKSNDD
T2 sequence (P26010 20-798): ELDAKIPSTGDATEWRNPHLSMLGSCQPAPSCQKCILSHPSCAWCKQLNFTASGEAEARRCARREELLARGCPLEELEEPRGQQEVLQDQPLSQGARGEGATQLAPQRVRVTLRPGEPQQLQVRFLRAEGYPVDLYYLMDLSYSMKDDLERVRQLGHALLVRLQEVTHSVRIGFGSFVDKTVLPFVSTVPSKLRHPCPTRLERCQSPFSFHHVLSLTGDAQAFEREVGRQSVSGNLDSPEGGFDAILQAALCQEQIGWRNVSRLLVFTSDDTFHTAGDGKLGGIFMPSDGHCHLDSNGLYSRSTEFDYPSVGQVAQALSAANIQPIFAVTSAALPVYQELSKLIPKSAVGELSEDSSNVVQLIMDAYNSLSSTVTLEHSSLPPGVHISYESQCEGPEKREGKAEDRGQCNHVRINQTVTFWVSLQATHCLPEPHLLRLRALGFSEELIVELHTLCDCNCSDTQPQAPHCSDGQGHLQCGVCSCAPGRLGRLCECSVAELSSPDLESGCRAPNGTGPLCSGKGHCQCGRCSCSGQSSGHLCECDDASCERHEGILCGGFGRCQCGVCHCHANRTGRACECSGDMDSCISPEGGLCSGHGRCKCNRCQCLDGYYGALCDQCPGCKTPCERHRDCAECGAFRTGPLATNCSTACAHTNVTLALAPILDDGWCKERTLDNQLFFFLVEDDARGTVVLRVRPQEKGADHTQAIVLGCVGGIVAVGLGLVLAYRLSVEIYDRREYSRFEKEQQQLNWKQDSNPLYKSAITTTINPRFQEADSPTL
The experiment in a line: α4β7-K562 Cell Adhesion Assay (α4β7 Mediated Adhesion/VCAM-1). Format: cell-based. How it is done:
α4β7-K562 Cell Adhesion Assay (α4β7 Mediated Adhesion/VCAM-1)
as §1, with “A stable cell line of K562 cells expressing human α4β7,” for “Ramos cells,”

Where [1] appears, read: Table I, racemic mixtures and resolved (S,S) and (R,S) diastereomers, read-out: Antagonist IC50 Activity α4β1.
The mark [2] stands for this setting: Table III, read-out: Inhibition of Binding of Ramos Cells to Immobilized VCAM-1 IC50.
[3] abbreviates: Table I, racemic mixtures and resolved (S,S) and (R,S) diastereomers, read-out: Antagonist IC50 Activity α4β7.
[4] abbreviates: Table IV, read-out: Inhibition of Binding of K562 Cells to Immobilized VCAM-1 IC50.
[5] abbreviates: Table IV, μM, read-out: Inhibition of Binding of K562 Cells to Immobilized VCAM-1 IC50.

By IC50 is commonly meant the concentration needed to halve the response being measured. On to `O=C(Nc1ccc(C[C@H](NC(=O)[C@H]2C3CCC(C3)N2S(=O)(=O)c2ccccc2)C(=O)O)cc1)c1c(F)cccc1F` (stereo partly drawn) [Cpd 5b, 4-[(2,6-difluorobenzoyl)amino]-N-[[(3R)-2-(phenylsulfonyl)-2-azabicyclo[2.2.1]hept-3-yl]carbonyl]-L-phenylalanine], for which the IC50 at α4β1 integrin receptor (setting [1]) was 394 nM; on α4β1 integrin receptor (setting [2]) it was 394 nM; at human α4β7 (setting [3]), 3.38 µM.

Take `O=C(Nc1ccc(C[C@H](NC(=O)[C@@H]2C3CCC(CC3)N2S(=O)(=O)c2ccccc2)C(=O)O)cc1)c1c(Cl)cccc1Cl` [Cpd 6a, 4-[(2,6-dichlorobenzoyl)amino]-N-[[(3S)-2-(phenylsulfonyl)-2-azabicyclo[2.2.2]oct-3-yl]carbonyl]-L-phenylalanine]: the IC50 at α4β1 integrin receptor (setting [1]) worked out at 23 nM; at α4β1 integrin receptor (setting [2]) it was 21 nM; at human α4β7 (setting [3]) it was 0.217 µM.

Take `O=C(Nc1ccc(C[C@H](NC(=O)[C@H]2C3CCC(CC3)N2S(=O)(=O)c2ccccc2)C(=O)O)cc1)c1c(Cl)cccc1Cl` [Cpd 6b, 4-[(2,6-dichlorobenzoyl)amino]-N-[[(3R)-2-(phenylsulfonyl)-2-azabicyclo[2.2.2]oct-3-yl]carbonyl]-L-phenylalanine]: the IC50 amounted to 222 nM on α4β1 integrin receptor (setting [1]), 222 nM on α4β1 integrin receptor (setting [2]) and 0.421 µM at human α4β7 (setting [3]).

For the compound `COc1cccc(OC)c1-c1ccc(C[C@H](NC(=O)[C@@H]2C3CCC(CC3)N2S(=O)(=O)c2ccccc2)C(=O)O)cc1` [Cpd 8, 4-(2,6-dimethoxyphenyl)-N-[[(3S)-2-(phenylsulfonyl)-2-azabicyclo[2.2.2]oct-3-yl]carbonyl]-L-phenylalanine], the IC50 at α4β1 integrin receptor (setting [2]) was 81 nM; at human α4β7 (setting [4]), 0.343 µM.

On to `Cc1ccc(S(=O)(=O)N2C3CCC(CC3)C2C(=O)N[C@@H](Cc2ccc(NC(=O)c3ccccc3C)cc2)C(=O)O)cc1` (stereo partly drawn) [Cpd 9, 4-[(2-methylbenzoyl)amino]-N-[[2-[(4-methylphenyl)sulfonyl]-2-azabicyclo[2.2.2]oct-3-yl]carbonyl]-(α^1S)-phenylalanine], for which the 50% inhibitory concentration (IC50) at α4β1 integrin receptor (setting [2]) was 267 nM; on human α4β7 (setting [5]), > 5 µM.

For the compound `Cc1ccc(S(=O)(=O)N2C3CCC(CC3)C2C(=O)N[C@@H](Cc2ccc(NC(=O)c3ccccc3Cl)cc2)C(=O)O)cc1` (stereo partly drawn) [Cpd 10, 4-[(2-chlorobenzoyl)amino]-N-[[2-[(4-methylphenyl)sulfonyl]-2-azabicyclo[2.2.2]oct-3-yl]carbonyl]-L-phenylalanine], the IC50 at α4β1 integrin receptor (setting [2]) was 145 nM; on human α4β7 (setting [4]), 4.41 µM.

As for `Cc1ccc(S(=O)(=O)N2C3CCC(CC3)C2C(=O)N[C@@H](Cc2ccc(NC(=O)c3c(F)cccc3F)cc2)C(=O)O)cc1` (stereo partly drawn) [Cpd 11, 4-[(2,6-difluorobenzoyl)amino]-N-[[2-[(4-methylphenyl)sulfonyl]-2-azabicyclo[2.2.2]oct-3-yl]carbonyl]-L-phenylalanine], the IC50 was 179 nM on α4β1 integrin receptor (setting [2]) and 1.49 µM on human α4β7 (setting [4]).

In the case of `Cc1ccc(S(=O)(=O)N2C3CCC(CC3)C2C(=O)N[C@@H](Cc2ccc(NC(=O)c3ccccc3C(F)(F)F)cc2)C(=O)O)cc1` (stereo partly drawn) [Cpd 12, 4-[[2-(trifluoromethyl)benzoyl]amino]-N-[[2-[(4-methylphenyl)sulfonyl]-2-azabicyclo[2.2.2]oct-3-yl]carbonyl]-L-phenylalanine], the IC50 on α4β1 integrin receptor (setting [2]) was determined as 104 nM; at human α4β7 (setting [4]) it was 1.08 µM.

`Cc1ccc(S(=O)(=O)N2C3CCC(CC3)C2C(=O)N[C@@H](Cc2ccc(NC(=O)c3ccccc3OC(F)(F)F)cc2)C(=O)O)cc1` (stereo partly shown) [Cpd 13]: the results for the IC50 on α4β1 integrin receptor (setting [2]) and at human α4β7 (setting [5]) were 119 nM and > 10 µM, respectively.

For `Cc1ccc(S(=O)(=O)N2C3CCC(CC3)C2C(=O)N[C@@H](Cc2ccc(NC(=O)c3ccccc3Br)cc2)C(=O)O)cc1` (stereo partly drawn) [Cpd 14, 4-[(2-bromobenzoyl)amino]-N-[[2-[(4-methylphenyl)sulfonyl]-2-azabicyclo[2.2.2]oct-3-yl]carbonyl]-L-phenylalanine], the IC50 at α4β1 integrin receptor (setting [2]) came out at 160 nM; on human α4β7 (setting [4]) it was 0.913 µM.

Regarding `O=C(Nc1ccc(C[C@H](NC(=O)C2C3CCC(CC3)N2S(=O)(=O)c2ccccc2)C(=O)O)cc1)c1c(F)cccc1F` (stereo partly drawn) [Cpd 15, 4-[(2,6-difluorobenzoyl)amino]-N-[[2-(phenylsulfonyl)-2-azabicyclo[2.2.2]oct-3-yl]carbonyl]-L-phenylalanine], the IC50 on α4β1 integrin receptor (setting [2]) stood at 67 nM; on human α4β7 (setting [4]), 1.39 µM.

Take `O=C(Nc1ccc(C[C@H](NC(=O)[C@@H]2C3CCC(C3)N2S(=O)(=O)c2ccccc2)C(=O)O)cc1)c1c(Cl)cccc1Cl` (stereo partly drawn) [Cpd 16a, 4-[(2,6-dichlorobenzoyl)amino]-N-[[(3S)-2-(phenylsulfonyl)-2-azabicyclo[2.2.1]hept-3-yl]carbonyl]-L-phenylalanine]: the IC50 on α4β1 integrin receptor (setting [1]) came to 153 nM; at α4β1 integrin receptor (setting [2]) it was 153 nM; at human α4β7 (setting [3]) it was 2.09 µM.

On to `O=C(Nc1ccc(C[C@H](NC(=O)[C@H]2C3CCC(C3)N2S(=O)(=O)c2ccccc2)C(=O)O)cc1)c1c(Cl)cccc1Cl` (stereo partly drawn) [Cpd 16b, 4-[(2,6-dichlorobenzoyl)amino]-N-[[(3R)-2-(phenylsulfonyl)-2-azabicyclo[2.2.1]hept-3-yl]carbonyl]-L-phenylalanine], for which the IC50 on α4β1 integrin receptor (setting [1]) was found to be 240 nM; on α4β1 integrin receptor (setting [2]) it was 240 nM; on human α4β7 (setting [3]) it was 0.393 µM.

With `COc1cccc(OC)c1-c1ccc(C[C@H](NC(=O)[C@H]2C3CCC(CC3)N2S(=O)(=O)c2ccc(C)cc2)C(=O)O)cc1` [Cpd 18a, 4-(2,6-dimethoxyphenyl)-N-[[(3R)-2-[(4-methylphenyl)sulfonyl]-2-azabicyclo[2.2.2]oct-3-yl]carbonyl]-L-phenylalanine], the results for the IC50 at α4β1 integrin receptor (setting [1]), at α4β1 integrin receptor (setting [2]) and at human α4β7 (setting [3]) were 857 nM, 857 nM and 9 µM, respectively.
